Legend:
BSJ-03-123 = compound: CC(=O)c1c(C)c2cnc(Nc3ccc(N4CCN(CCOCCOCCOCCNC(=O)COc5cccc6c5C(=O)N(C5CCC(=O)NC5=O)C6=O)CC4)cn3)nc2n(C2CCCC2)c1=O [BSJ-03-123]; test: increase in dead-cell fraction, 72 h; higher = more death;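 further: breast cancer cell lines in 384-well plates, stained with Hoechst plus LIVE/DEAD far red dye and imaged, cells above an LDR intensity threshold counted dead, Hoechst-negative corpses included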
THZ1 [1] = compound: T1, CN(C)C/C=C/C(=O)Nc1ccc(C(=O)Nc2cccc(Nc3ncc(Cl)c(-c4c[nH]c5ccccc45)n3)c2)cc1 [THZ1]; test: as above
[2] = compound: CCc1cnn2c(NCc3ccc[n+]([O-])c3)cc(N3CCCC[C@H]3CCO)nc12; test: as above
LEE011/Ribociclib = compound: CN(C)C(=O)c1cc2cnc(Nc3ccc(N4CCNCC4)cn3)nc2n1C1CCCC1 [LEE011/Ribociclib]; test: as above
THZ531 [3] = compound: T2, CN(C)C/C=C/C(=O)Nc1ccc(C(=O)N2CCC[C@@H](Nc3ncc(Cl)c(-c4c[nH]c5ccccc45)n3)C2)cc1 [THZ531]; test: as above
YKL-5-124 = compound: C=CC(=O)Nc1ccc(C(=O)Nc2[nH]nc3c2CN(C(=O)N[C@H](CN(C)C)c2ccccc2)C3(C)C)cc1 [YKL-5-124]; test: as above
Neratinib/HKI272 = compound: CCOc1cc2ncc(C#N)c(Nc3ccc(OCc4ccccn4)c(Cl)c3)c2cc1NC(=O)/C=C/CN(C)C [Neratinib/HKI272]; test: as above
[4] = compound: CC(=O)c1c(C)c2cnc(Nc3ccc(N4CCNCC4)cn3)nc2n(C2CCCC2)c1=O; test: as above
AZD1775 = compound: C=CCn1c(=O)c2cnc(Nc3ccc(N4CCN(C)CC4)cc3)nc2n1-c1cccc(C(C)(C)O)n1 [AZD1775]
THZ1 [5] = compound: T1, THZ1
Rucaparib = compound: CNCc1ccc(-c2[nH]c3cc(F)cc4c3c2CCNC4=O)cc1 [Rucaparib]
[6] = compound: CC(=O)Nc1cccc(-n2c(=O)n(C3CC3)c(=O)c3c(Nc4ccc(I)cc4F)n(C)c(=O)c(C)c32)c1
Saracatinib/AZD0530 = compound: CN1CCN(CCOc2cc(OC3CCOCC3)c3c(Nc4c(Cl)ccc5c4OCO5)ncnc3c2)CC1 [Saracatinib/AZD0530]
THZ531 [7] = compound: T2, THZ531
[8] = compound: CCCCOc1c(C(=O)c2c(F)cc(C)cc2F)c[nH]c2nncc1-2
[9] = compound: CO[C@@H](C)Cn1c(=O)n(C)c2cnc3ccc(-c4cncc(C(C)(C)O)c4)cc3c21
BVD523 = compound: CC(C)Nc1cc(-c2c[nH]c(C(=O)N[C@H](CO)c3cccc(Cl)c3)c2)c(Cl)cn1 [BVD523]
[10] = compound: COc1ccc2c(c1)[C@]1(C[C@H]1c1ccc3c(/C=C/c4ccc(CN5C[C@@H](C)O[C@@H](C)C5)cc4)n[nH]c3c1)C(=O)N2
Alpelisib/BYL719 = compound: Cc1nc(NC(=O)N2CCC[C@H]2C(N)=O)sc1-c1ccnc(C(C)(C)C(F)(F)F)c1 [Alpelisib/BYL719]
Cediranib/AZD2171 = compound: COc1cc2c(Oc3ccc4[nH]c(C)cc4c3F)ncnc2cc1OCCCN1CCCC1 [Cediranib/AZD2171]
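Wherever GR50, 72 h is given: breast cancer and non-malignant breast epithelial cell lines, Deep Dye Drop or Dye Drop imaging, nine half-log doses, GR normalized to time-zero plates and DMSO-only controls.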

Which results are given for MDAMB330?
increase in dead-cell fraction (BSJ-03-123; 0.001 µM): 0.0018; increase in dead-cell fraction (BSJ-03-123; 0.003162 µM): 0.0001; increase in dead-cell fraction (BSJ-03-123; 0.01 µM): 0.0015; increase in dead-cell fraction (BSJ-03-123; 0.03162 µM): 0.003; increase in dead-cell fraction (BSJ-03-123; 0.1 µM): 0.0019; increase in dead-cell fraction (BSJ-03-123; 0.3162 µM): 0.0031; increase in dead-cell fraction (BSJ-03-123; 1 µM): 0.0019; increase in dead-cell fraction (BSJ-03-123; 3.162 µM): 0.0034; increase in dead-cell fraction (BSJ-03-123; 10 µM): 0.0354; increase in dead-cell fraction (THZ1 [1]; 0.0001 µM): 0.0016; increase in dead-cell fraction (THZ1 [1]; 0.0003162 µM): 0.0039; increase in dead-cell fraction (THZ1 [1]; 0.001 µM): 0.0043; increase in dead-cell fraction (THZ1 [1]; 0.003162 µM): 0.0044; increase in dead-cell fraction (THZ1 [1]; 0.01 µM): 0.0071; increase in dead-cell fraction (THZ1 [1]; 0.03162 µM): 0.105; increase in dead-cell fraction (THZ1 [1]; 0.1 µM): 0.359; increase in dead-cell fraction (THZ1 [1]; 0.3162 µM): 0.389; increase in dead-cell fraction (THZ1 [1]; 1 µM): 0.311; increase in dead-cell fraction ([2]; 0.0001 µM): -0.0012; increase in dead-cell fraction ([2]; 0.0003162 µM): -0.0001; increase in dead-cell fraction ([2]; 0.001 µM): 0.0032; increase in dead-cell fraction ([2]; 0.003162 µM): 0.0022; increase in dead-cell fraction ([2]; 0.01 µM): 0.0023; increase in dead-cell fraction ([2]; 0.03162 µM): 0.0691; increase in dead-cell fraction (LEE011/Ribociclib; 0.001 µM): 0.0031; increase in dead-cell fraction (LEE011/Ribociclib; 0.003162 µM): 0.0013; increase in dead-cell fraction (LEE011/Ribociclib; 0.01 µM): 0.0054; increase in dead-cell fraction (LEE011/Ribociclib; 0.03162 µM): 0.0111; increase in dead-cell fraction (LEE011/Ribociclib; 0.1 µM): 0.0037; increase in dead-cell fraction (LEE011/Ribociclib; 0.3162 µM): -0.0005; increase in dead-cell fraction (LEE011/Ribociclib; 1 µM): -0.0028; increase in dead-cell fraction (LEE011/Ribociclib; 3.162 µM): 0.0128; increase in dead-cell fraction (LEE011/Ribociclib; 10 µM): 0.0025; increase in dead-cell fraction (THZ531 [3]; 0.0001 µM): 0.0039; increase in dead-cell fraction (THZ531 [3]; 0.0003162 µM): -0.0007; increase in dead-cell fraction (THZ531 [3]; 0.001 µM): 0.0004; increase in dead-cell fraction (THZ531 [3]; 0.003162 µM): 0.0018; increase in dead-cell fraction (THZ531 [3]; 0.01 µM): 0.0041; increase in dead-cell fraction (THZ531 [3]; 0.03162 µM): 0.0164; increase in dead-cell fraction (THZ531 [3]; 0.1 µM): 0.664; increase in dead-cell fraction (THZ531 [3]; 0.3162 µM): 0.519; increase in dead-cell fraction (THZ531 [3]; 1 µM): 0.413; increase in dead-cell fraction (YKL-5-124; 0.001 µM): 0.0025; increase in dead-cell fraction (YKL-5-124; 0.003162 µM): 0.0078; increase in dead-cell fraction (YKL-5-124; 0.01 µM): 0.0057; increase in dead-cell fraction (YKL-5-124; 0.03162 µM): 0.0038; increase in dead-cell fraction (YKL-5-124; 0.1 µM): 0.0034; increase in dead-cell fraction (YKL-5-124; 0.3162 µM): 0.0041; increase in dead-cell fraction (YKL-5-124; 1 µM): 0.0016; increase in dead-cell fraction (YKL-5-124; 3.162 µM): 0.0166; increase in dead-cell fraction (YKL-5-124; 10 µM): 0.131; increase in dead-cell fraction (Neratinib/HKI272; 0.0003162 µM): -0.0001; increase in dead-cell fraction (Neratinib/HKI272; 0.001 µM): 0.0011; increase in dead-cell fraction (Neratinib/HKI272; 0.003162 µM): 0.0102; increase in dead-cell fraction (Neratinib/HKI272; 0.01 µM): 0.043; increase in dead-cell fraction (Neratinib/HKI272; 0.03162 µM): 0.0716; increase in dead-cell fraction (Neratinib/HKI272; 0.1 µM): 0.0731; increase in dead-cell fraction (Neratinib/HKI272; 0.3162 µM): 0.0685; increase in dead-cell fraction (Neratinib/HKI272; 1 µM): 0.0784; increase in dead-cell fraction (Neratinib/HKI272; 3.162 µM): 0.0756; increase in dead-cell fraction ([4]; 0.0003162 µM): -0.001; increase in dead-cell fraction ([4]; 0.001 µM): -0.0006; increase in dead-cell fraction ([4]; 0.003162 µM): -0.001; increase in dead-cell fraction ([4]; 0.01 µM): -0.0033; increase in dead-cell fraction ([4]; 0.03162 µM): -0.0012; increase in dead-cell fraction ([4]; 0.1 µM): -0.0017; increase in dead-cell fraction ([4]; 0.3162 µM): 0.0031; increase in dead-cell fraction ([4]; 1 µM): 0.0053; increase in dead-cell fraction ([4]; 3.162 µM): 0.0031; GR50, 72 h (AZD1775): 0.0535 µM; GR50, 72 h (THZ1 [5]): 0.00836 µM; GR50, 72 h (Rucaparib): 8.69 µM; GR50, 72 h [6]: 0.138 µM; GR50, 72 h (Saracatinib/AZD0530): 1.2 µM; GR50, 72 h (THZ531 [7]): 0.0247 µM; GR50, 72 h [8]: 0.762 µM; GR50, 72 h [9]: < 0.001 µM; GR50, 72 h (BVD523): 7.45 µM; GR50, 72 h [10]: 0.00542 µM; GR50, 72 h (Alpelisib/BYL719): 1.2 µM; GR50, 72 h (Cediranib/AZD2171): 4.86 µM
